# Measured values: patent US20030215840A1, “Methods and compositions for treating cardiovascular disease using 1682, 6169, 6193, 7771, 14395, 29002, 33216, 43726, 69292, 26156, 32427, 2402, 7747, 1720, 9151, 60491, 1371, 7077, 33207, 1419, 18036, 16105, 38650, 14245, 58848, 1870, 25856, 32394, 3484, 345, 9252, 9135, 10532, 18610, 8165, 2448, …” (Millennium Pharmaceuticals, Inc., priority 2002, published 2003)
# B1: interferon gamma: interferon gamma used to stimulate monocytes and macrophages (protein, UniProt P01579 24-161, looked up)
# Interferon gamma: QDPYVKEAENLKKYFNAGHSDVADNGTLFLGILKNWKEESDRKIMQSQIVSFYFKLFKNFKDDQSIQKSVETIKEDMNVKFFNSNKKKRDDFEKLTNYSVTDLNVQRKAIHELIQVMAELSPAAKTGKRKRSQMLFRG
# B2: CD40 ligand: CD40 ligand used to stimulate macrophages (protein, UniProt P29965 113-261, looked up)
# CD40 ligand, soluble form: MQKGDQNPQIAAHVISEASSKTTSVLQWAEKGYYTMSNNLVTLENGKQLTVKRQGLYYIYAQVTFCSNREASSQAPFIASLCLKSPGRFERILLRAANTHSSAKPCGQQSIHLGGVFELQPGASVFVNVTDPSQVSHGTGFTSFGLLKL
# Key:
# [1] = tested on: 17799 mRNA; settings: niacin marmoset models
# Excerpt: (§1) This example describes the TaqMan™ procedure. The Taqman™ procedure is a quantitative, reverse transcription PCR-based approach for detecting mRNA. The RT-PCR reaction exploits the 5′ nuclease activity of AmpliTaq Gold™ DNA Polymerase to cleave a TaqMan™ probe during PCR. Briefly, cDNA was generated from the samples of interest, e.g., heart, kidney, liver, skeletal muscle, and various vessels, and used as the starting material for PCR amplification. In addition to the 5′ and 3′ gene-specific primers, a gene-specific oligonucleotide probe (complementary to the region being amplified) was included in the reaction (i.e., the Taqman™ probe). […]
# (§2) During the PCR reaction, cleavage of the probe separates the reporter dye and the quencher dye, resulting in increased fluorescence of the reporter. Accumulation of PCR products is detected directly by monitoring the increase in fluorescence of the reporter dye. When the probe is intact, the proximity of the reporter dye to the quencher dye results in suppression of the reporter fluorescence. […]
# [2] = tested on: 32135 mRNA; settings: niacin models
# Excerpt: as §1, §2
# [3] = tested on: 29002 mRNA; assay: TaqMan analysis of 29002 mRNA in stimulated endothelial cells; format: cell-based
# Protocol: (§3) This example describes the TaqMan™ procedure. […] The TaqMan™ probe includes the oligonucleotide with a fluorescent reporter dye covalently linked to the 5′ end of the probe (such as FAM (6-carboxyfluorescein), TET (6-carboxy-4,7,2′,7′-tetrachlorofluorescein), JOE (6-carboxy-4,5-dichloro-2,7-dimethoxyfluorescein), or VIC) and a quencher dye (TAMRA (6-carboxy-N,N,N′,N′-tetramethylrhodamine) at the 3′ end of the probe.
# (§4) RNA was prepared using the trizol method and treated with DNase to remove contaminating genomic DNA. cDNA was synthesized using standard techniques.
# [4] = tested on: 6169 mRNA; assay: TaqMan analysis of 6169 mRNA in an African Green Monkey model of atherosclerosis; format: in vivo
# Protocol: as §3, §4
# [5] = tested on: 21833 mRNA; assay: TaqMan analysis of 21833 in cultured human monocytes and macrophages; format: cell-based; settings: after stimulation
# Protocol: as §3, §4
# [6] = tested on: 29002 mRNA; assay: TaqMan analysis of 29002 mRNA in stimulated macrophages; format: cell-based
# Protocol: as §3, §4
molecule,measurement,setting,value
O=C(O)c1cccnc1 [niacin],17799 mRNA expression,[1],repressed
same,32135 mRNA expression,[2],repressed
"CC[C@H](C)C(=O)O[C@H]1CCC=C2C=C[C@H](C)[C@H](CC[C@@H]3C[C@@H](O)CC(=O)O3)[C@H]21 [mevastatin, reference compound]",29002 mRNA expression,[3],down-regulated
n-3 polyunsaturated fatty acid,6169 mRNA expression,[4],repressed
B1,21833 expression,[5],upregulated
B2,21833 expression,[5],upregulated
same,29002 mRNA expression,[6],upregulated
